Legend:
Format in all cases: in vivo
Setaria faberi (SETFA) [1] = assay: Pre-emergence biological efficacy, glasshouse pot test; conditions: 312 h
Summary of the method: (§1)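 Standard soil, pots, sown then sprayed at day 1 with 1000 or 250 g/ha test compound. Glasshouse: 24/16 °C, 14 h photoperiod, 65% humidity, twice-daily watering. Evaluation day 13, 0–100 damage score.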

Solanum nigrum (SOLNI) [2] = assay: as above; conditions: 312 h
Summary of the method: as §1

[3] = test system: Echinochloa crus-galli (ECHCG); assay: as above; conditions: 312 h
Summary of the method: as §1

[4] = test system: Ipomea hederaceae (IPOHE); assay: as above; conditions: Ipomoea hederacea, 312 h
Summary of the method: as §1

[5] = test system: Alopecurus myosuroides (ALOMY); assay: as above; conditions: 312 h
Summary of the method: as §1

[6] = test system: Amaranthus retoflexus (AMARE); assay: as above; conditions: Amaranthus retroflexus, 312 h
Summary of the method: as §1

Setaria faberi (SETFA) [7] = assay: Post-emergence biological efficacy, glasshouse pot test; conditions: 312 h
Summary of the method: (§2)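 Scored 13 days after spraying on a 0 (no damage) to 100 (total damage) scale. Treatment was a post-emergence spray at 1000 or 250 g/ha, from acetone/water 50:50 plus 0.5% Tween 20, onto 8-day-old plants in soil pots. Growth at 24/16° C, 14 h photoperiod, 65% humidity, watered twice daily.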

Solanum nigrum (SOLNI) [8] = assay: as above; conditions: 312 h
Summary of the method: as §2

[9] = test system: Echinochloa crus-galli (ECHCG); assay: as above; conditions: 312 h
Summary of the method: as §2

[10] = test system: Ipomea hederaceae (IPOHE); assay: as above; conditions: Ipomoea hederacea, 312 h
Summary of the method: as §2

[11] = test system: Alopecurus myosuroides (ALOMY); assay: as above; conditions: 312 h
Summary of the method: as §2

[12] = test system: Amaranthus retoflexus (AMARE); assay: as above; conditions: Amaranthus retroflexus, 312 h
Summary of the method: as §2

[13] = pre-emergence, 1,000 g/ha, evaluated after 13 days (100=total damage; 0=no damage), read-out: Percentage damage SETFA
[14] = pre-emergence, 1,000 g/ha, evaluated after 13 days (100=total damage; 0=no damage), read-out: Percentage damage SOLNI
[15] = pre-emergence, 1,000 g/ha, evaluated after 13 days (100=total damage; 0=no damage), read-out: Percentage damage ECHCG
[16] = pre-emergence, 1,000 g/ha, evaluated after 13 days (100=total damage; 0=no damage), read-out: Percentage damage IPOHE
[17] = pre-emergence, 1,000 g/ha, evaluated after 13 days (100=total damage; 0=no damage), read-out: Percentage damage ALOMY
[18] = pre-emergence, 1,000 g/ha, evaluated after 13 days (100=total damage; 0=no damage), read-out: Percentage damage AMARE
[19] = post-emergence, 1,000 g/ha, evaluated after 13 days (100=total damage; 0=no damage), read-out: Percentage damage caused to weed species, SETFA
[20] = post-emergence, 1,000 g/ha, evaluated after 13 days (100=total damage; 0=no damage), read-out: Percentage damage caused to weed species, SOLNI
[21] = post-emergence, 1,000 g/ha, evaluated after 13 days (100=total damage; 0=no damage), read-out: Percentage damage caused to weed species, ECHCG
[22] = post-emergence, 1,000 g/ha, evaluated after 13 days (100=total damage; 0=no damage), read-out: Percentage damage caused to weed species, IPOHE
[23] = post-emergence, 1,000 g/ha, evaluated after 13 days (100=total damage; 0=no damage), read-out: Percentage damage caused to weed species, ALOMY
[24] = post-emergence, 1,000 g/ha, evaluated after 13 days (100=total damage; 0=no damage), read-out: Percentage damage caused to weed species, AMARE

SMILES | pest or weed control at 1000 g/ha (Setaria faberi (SETFA) [1]; [13]) [%] | pest or weed control at 1000 g/ha (Solanum nigrum (SOLNI) [2]; [14]) [%] | pest or weed control at 1000 g/ha [3, 15] [%] | pest or weed control at 1000 g/ha [4, 16] [%] | pest or weed control at 1000 g/ha [5, 17] [%] | pest or weed control at 1000 g/ha [6, 18] [%] | pest or weed control at 1000 g/ha (Setaria faberi (SETFA) [7]; [19]) [%] | pest or weed control at 1000 g/ha (Solanum nigrum (SOLNI) [8]; [20]) [%] | pest or weed control at 1000 g/ha [9, 21] [%] | pest or weed control at 1000 g/ha [10, 22] [%] | pest or weed control at 1000 g/ha [11, 23] [%] | pest or weed control at 1000 g/ha [12, 24] [%] | other results
COC(=O)c1nc(C2CC2)nc(N(C)Cc2nonc2C)c1Cl [Compound 5-149, 5-Chloro-2-cyclopropyl-6-methoxycarbonyl-4-[N-methyl-N-(4-methyl-1,2,5-oxadiazol-3-ylmethyl)-amino]-pyrimidine] | – | – | – | – | – | – | – | – | – | – | – | – | pest or weed control at 1000 g/ha (Setaria faberi (SETFA) [1]; pre-emergence, rate 1,000 g/ha, evaluated after 13 days (100=total damage to plant; 0=no damage), read-out: Percentage damage caused to weed species, SETFA): 10%; pest or weed control at 1000 g/ha (Solanum nigrum (SOLNI) [2]; pre-emergence, rate 1,000 g/ha, evaluated after 13 days (100=total damage to plant; 0=no damage), read-out: Percentage damage caused to weed species, SOLNI): 40%; pest or weed control at 1000 g/ha ([3]; pre-emergence, rate 1,000 g/ha, evaluated after 13 days (100=total damage to plant; 0=no damage), read-out: Percentage damage caused to weed species, ECHCG): 20%; pest or weed control at 1000 g/ha ([4]; pre-emergence, rate 1,000 g/ha, evaluated after 13 days (100=total damage to plant; 0=no damage), read-out: Percentage damage caused to weed species, IPOHE): 80%; pest or weed control at 1000 g/ha ([5]; pre-emergence, rate 1,000 g/ha, evaluated after 13 days (100=total damage to plant; 0=no damage), read-out: Percentage damage caused to weed species, ALOMY): 30%; pest or weed control at 1000 g/ha ([6]; pre-emergence, rate 1,000 g/ha, evaluated after 13 days (100=total damage to plant; 0=no damage), read-out: Percentage damage caused to weed species, AMARE): 80%; pest or weed control at 1000 g/ha (Setaria faberi (SETFA) [7]; Rate 1,000 g/ha, post-emergence spray, evaluated after 13 days (100=total damage to plant; 0=no damage to plant), read-out: Percentage damage caused to weed species, post-emergence, SETFA): 80%; pest or weed control at 1000 g/ha (Solanum nigrum (SOLNI) [8]; Rate 1,000 g/ha, post-emergence spray, evaluated after 13 days (100=total damage to plant; 0=no damage to plant), read-out: Percentage damage caused to weed species, post-emergence, SOLNI): 90%; pest or weed control at 1000 g/ha ([9]; Rate 1,000 g/ha, post-emergence spray, evaluated after 13 days (100=total damage to plant; 0=no damage to plant), read-out: Percentage damage caused to weed species, post-emergence, ECHCG): 40%; pest or weed control at 1000 g/ha ([10]; Rate 1,000 g/ha, post-emergence spray, evaluated after 13 days (100=total damage to plant; 0=no damage to plant), read-out: Percentage damage caused to weed species, post-emergence, IPOHE): 90%; pest or weed control at 1000 g/ha ([11]; Rate 1,000 g/ha, post-emergence spray, evaluated after 13 days (100=total damage to plant; 0=no damage to plant), read-out: Percentage damage caused to weed species, post-emergence, ALOMY): 40%; pest or weed control at 1000 g/ha ([12]; Rate 1,000 g/ha, post-emergence spray, evaluated after 13 days (100=total damage to plant; 0=no damage to plant), read-out: Percentage damage caused to weed species, post-emergence, AMARE): 100%
COC(=O)c1nc(C2CC2)nc(NC(CO)c2ccccc2)c1Cl (stereo not drawn) [Compound 4-203, 5-Chloro-2-cyclopropyl-4-(2-hydroxy-1-phenyl-ethylamino)-6-methoxycarbonyl-pyrimidine] | 60 | 80 | 60 | 100 | 30 | 100 | 40 | 80 | 30 | 50 | 40 | 100 | –
COc1ccc(CNc2nc(C3CC3)nc(C(=O)O)c2Cl)c(OC)c1 [Compound 1-110, 5-Chloro-2-cyclopropyl-4-(2,4-dimethoxyphenyl-methylamino)-pyrimidine-6-carboxylic acid] | 30 | 60 | 20 | 90 | 40 | 100 | 80 | 80 | 50 | 80 | 30 | 100 | –
COC(=O)c1nc(C2CC2)nc(NCC(c2ccccc2)c2ccccc2)c1Cl [Compound 4-267, 5-Chloro-2-cyclopropyl-4-[2,2-(diphenyl)-ethylamino]-6-methoxycarbonyl-pyrimidine] | 10 | 60 | 10 | 60 | 10 | 90 | 20 | 80 | 10 | 70 | 10 | 90 | –
COC(=O)c1nc(C2CC2)nc(N[C@H](CO)[C@H](O)c2ccc([N+](=O)[O-])cc2)c1Cl [4-275 (R,R), 5-Chloro-2-cyclopropyl-4-[(1R, 2R)-2-hydroxy-1-hydroxymethyl-2-(4-nitrophenyl)-ethylamino]-6-methoxycarbonyl-pyrimidine] | 70 | 90 | 60 | 100 | 70 | 100 | 80 | 100 | 70 | 100 | 30 | 100 | –

— patent publication US20110086759A1, “CHEMICAL COMPOUNDS” (SYNGENTA CROP PROTECTION, INC., priority 2007, published 2011)
